Source: patent US7311892B2, “Multidrug multiligand conjugates for targeted drug delivery” (priority 2001, dated 2007)

Legend:
[1] = tested on: NCI-H1299 non-small cell lung cancer cells; experiment: Apoptosis induction assay (Annexin V-FITC, flow cytometry); format: cell-based; settings: 50 nM, 3 hours exposure, then drug-free medium; analysed after 96 hours; triplicate
Description: Apoptosis was measured by an Annexin V-FITC kit. […] 2.3%, 2.5% and 2.4% induction for untreated cells, free PTX, the BTN/SaV complex and the BTN/SaV+PTX controls, respectively.
FIG. 6 illustrates the results of an apoptosis induction assay, illustrating NCI-HI299 cells are induced to undergo apoptosis specifically in response to the PTX-BBN[7-13]-BTN-SaV conjugate. Cells were grown as described above and in Example 3 and left untreated or treated with 50 nM of the PTX-BBN[7-13]-BTN-SaV conjugate, unconjugated paclitaxel (PTX), the biotin/streptavidin complex (BTN/SaV) or a mixture of BTN/SaV and PTX. After 3 hours, the media containing these additives was removed and replaced with fresh media. After 96 hours, the cells were removed from the 24 well plates by treatment with trypsin/EDTA and analyzed for Annexin V by flow cytometry using an Annexin V-FITC kit (Biovision, Palo Alto, Calif.). All treatments were done in triplicate and presented as the percentage of cells staining with Annexin V-FITC. […]
The HI299 cells were plated in 24 well plates at a density of 10,000 cells/well and allowed to adhere for 24 hours. […] After 96 hours, the cells were removed from the 24 well plates by treatment with trypsin/EDTA and analyzed for Annexin V by flow cytometry using an Annexin V-FITC kit (Biovision, Palo Alto, Calif.). […]

[2] = tested on: NCI-H1299 non-small cell lung cancer cells; experiment: Cell proliferation assay; format: cell-based; settings: Homo sapiens, 50 nM, 3 hours exposure, then drug-free medium, cells counted after 96 hours, normalized to untreated cells, quadruplicate, read-out: growth inhibition
Description: Cells were grown as described in Example 2 and exposed to various treatments. The cells were left untreated or treated with 50 nM of the PTX-BBN[7-13]-BTN-SaV conjugate, unconjugated paclitaxel (PTX), the biotin/streptavidin complex (BTN/SaV) or a mixture of BTN/SaV and PTX. After 3 hours, the media containing these additives was removed and replaced with fresh media. After 96 hours, the cells were removed from the 24 well plates by treatment with trypsin/EDTA and counted with a Coulter particle counter. All treatments were done in quadruplicate and the cell counts were normalized to the untreated cells.
To evaluate the growth inhibitory effects of the PTX-BBN[7-13]-BTN/SaV conjugate, experiments were designed to compare the effect of the conjugate with the unconjugated paclitaxel, the BTN/SaV complex and a mixture of free PTX and the BTN/SaV complex (FIG. 5).
The HI299 cells were plated in 24 well plates at a density of 10,000 cells/well and allowed to adhere for 24 hours. The cells were treated with 50 nM of the following: 1) no treatment (Untreated); 2) unconjugated paclitaxel(PTX); 3) biotin/streptavidin complex (BTN/SaV); 4) a mixture of BTN/SaV and PTX; and 5) the PTX-BBN[7-13]-BTN/SaV conjugate (Conjugate) described in FIG. 1A. […] After 96 hours, the cells were removed from the 24 well plates by treatment with trypsin/EDTA and counted with a Coulter particle counter. […]

Q: How did the “induction of apoptosis (percentage of cells staining with Annexin V-FITC)” value [1] turn out when CC(=O)O[C@H]1C(=O)[C@@]2(C)[C@H]([C@H](OC(=O)c3ccccc3)[C@]3(O)C[C@H](OC(=O)[C@H](O)[C@@H](NC(=O)c4ccccc4)c4ccccc4)C(C)=C1C3(C)C)[C@]1(OC(C)=O)CO[C@@H]1C[C@@H]2O [free PTX, paclitaxel] was run?
A: ~2.3%

Q: And the inhibition at 0.05 µM [2]?
A: 0%
